From patent publication US20100179225A1, “POI Prevention” (CYTOKINE PHARMASCIENCES, INC., priority 2008, published 2010)

What was measured:
neutrophils in ME = assay: Neutrophil infiltration into rat ME (myeloperoxidase staining) after IM; format: in vivo; conditions: rats, 24 hours after IM (FIG. 10)
Description: Animals within examples referring to FIGS. 2-9 were treated 90 minutes before operation with 0 mg/kg (placebo group), or 5 mg/kg bodyweight CNI-1493. In further experiments in rats or mice 0.1, 1.0 or 10 mg/kg CPSI-2364 were administered 90 minutes before surgical procedure via oral route. Oral (p.o.) administration was performed via a gastric tube. CNI-1493 and CPSI-2364 were dissolved in 2.5% mannitol. Placebo and CNI-1493 or CPSI-2364 groups were subdivided in two further groups. One was sham operated (laparotomy without IM) while the other underwent laparotomy followed by IM.
Specimens for histochemical analysis were prepared 24 h after operation and performed on whole mounts of the distal jejunum, as described before in detail (n=5-7 each group) 9. In brief, jejunal segments were opened, immersed in chilled Krebs-Ringer buffer (KRB) and fixed in 100% ethanol for 10 minutes. After washing with KRB, mucosa and submucosa were stripped off and ME whole mounts were used for detection of myeloperoxidase (MPO) positive cells (neutrophils). […] MPO+-cells were counted under a microscope (TE-2000, Nikon, Duesseldorf, Germany) in 5 randomly chosen areas in each specimen.
Example 3 was repeated in rats and mice, i.e. the infiltration of neutrophils within the ME after preoperative p.o. application of the drug was analyzed (FIGS. 10 and 11). […]

ED1 positive cells = assay: ED1 positive cell (monocyte/macrophage) infiltration into graft muscularis after small intestinal transplantation; format: in vivo, Lewis rats; conditions: 1 mg/kg i.v.; 18 h after reperfusion
Description: Syngeneic orthotopic small intestinal transplantation was performed in Lewis rats as previously described (Schwarz N T, Nakao A, Nalesnik M A, Kalff J C, Murase N, Bauer A J. Protective effects of ex vivo graft radiation and tacrolimus on syngeneic transplanted rat small bowel motility. Surgery 2002; 131: 413-423). […] Then the graft vascular bed was perfused with chilled UW solution (University of Wisconcin) and the intestinal lumen was irrigated with 50 ml cold 0.9% NaCl solution containing […]. neomycin sulfate (Uro Nebacetin N, Nycomed, Germany). The graft was stored in cold UW solution during the preparation of the recipient. An end-to-side anastomosis between the graft aorta and the recipient infra-renal aorta, and between the graft vein and recipient vena cava, was performed. […]
ED1 and MPO+-cells were counted under a microscope (TE-2000, Nikon, Duesseldorf, Germany) in 5 randomly chosen areas in each specimen.
In order to evaluate cell populations which are known to be associated with inflammation processes and to initiate immunological processes within the muscularis, leukocyte infiltrates were evaluated after 18 h by MPO histochemistry (polymorphonuclear neutrophils) and ED1 immunohistochemistry (monocytes and passenger macrophages). […]

C/C(=N\N=C(N)N)c1cc(NC(=O)CCCCCCCCC(=O)Nc2cc(/C(C)=N/N=C(N)N)cc(/C(C)=N/N=C(N)N)c2)cc(/C(C)=N/N=C(N)N)c1.CS(=O)(=O)O.CS(=O)(=O)O.CS(=O)(=O)O.CS(=O)(=O)O [CPSI-2364]
neutrophils in ME compared to the placebo IM group (neutrophils in ME; 0.1 mg/kg bodyweight p.o.): led to the described results
neutrophils in ME compared to the placebo IM group (neutrophils in ME; p.o. preoperative): significant reduction of neutrophils
ED1 positive cells in muscularis (ED1 positive cells): 54.8 cells/field of view (magnification 200×)
